Source: ChEMBL document CHEMBL5506065, “Discovery of Novel Non-Nucleoside Inhibitors Interacting with Dizinc Ions of CD73” (J Med Chem, 2024)
The source made the active and inactive calls. The calls are words filed in the database; no cut-off is given here.

Legend:
[1] = Cmax in male Sprague-Dawley rat at 10 mg/kg, po; format: ADME, organism-based; details: in vivo
[2] = Clearance in male Sprague-Dawley rat at 1 mg/kg, iv; format: ADME, organism-based; details: in vivo
[3] = Cmax in male Sprague-Dawley rat at 1 mg/kg, iv; format: ADME, organism-based; details: in vivo
[4] = AUC (0 to t) in male Sprague-Dawley rat at 10 mg/kg, po; format: ADME, organism-based; details: in vivo
E.G7-OVA [5] = experiment: (§1) In vivo antitumor immunity against mouse E.G7-OVA T cell lymphoma subcutaneously injected in syngeneic C57/BL6 mouse model assessed as tumor-infiltrating lymphocyte by measuring increase in CD8 positive T cell in total CD45 positive cells at 1 mg/kg, iv qd (tail vein) measured after 16 days by flow cytometry; format: functional, organism-based; details: time 16.0 day
[6] = Tmax in male Sprague-Dawley rat at 10 mg/kg, po; format: ADME, organism-based; details: in vivo
[7] = Half life in male Sprague-Dawley rat at 10 mg/kg, po; format: ADME, organism-based; details: in vivo
E.G7-OVA [8] = experiment: In vivo antitumor activity against mouse E.G7-OVA T cell lymphoma subcutaneously injected in syngeneic C57/BL6 mouse model assessed as tumor growth inhibition at 1 mg/kg, iv qd (tail vein) measured after 16 days; format: functional; details: 384 h, time 16 day, read-out: TGI
E.G7-OVA [9] = experiment: as §1, with “positive/Treg ratio” for “positive T cell”, “presence of doxorubicin” for “total CD45 positive cells”; format: functional, organism-based; details: time 16.0 day
E.G7-OVA [10] = experiment: In vivo antitumor activity against mouse E.G7-OVA T cell lymphoma subcutaneously injected in syngeneic C57/BL6 mouse model assessed as tumor growth inhibition at 50 mg/kg, ip measured after 14 days; format: functional; details: 336 h, time 14 day, read-out: TGI
[11] = Toxicity in C57/BL6 mouse subcutaneously injected with mouse E.G7-OVA T cells assessed as change in body weight at 1 mg/kg, iv qd treated for 16 days; format: organism-based, T-cell; details: in vivo, 384 h, time 16 day
[12] = Clearance in male Sprague-Dawley rat at 10 mg/kg, po; format: ADME, organism-based; details: in vivo
[13] = Inhibition of CD73 in human MDA-MB-231 cells using AMP substrate measured after 60 mins by cell based - malachite green phosphate assay; details: MDA-MB-231, 1 h
E.G7-OVA [14] = experiment: In vivo antitumor activity against mouse E.G7-OVA T cell lymphoma subcutaneously injected in syngeneic C57/BL6 mouse model assessed as tumor growth inhibition in presence of doxorubicin at 1 mg/kg, iv qd (tail vein) measured after 16 days; format: functional; details: 384 h, time 16 day, read-out: TGI
[15] = Tmax in male Sprague-Dawley rat at 1 mg/kg, iv; format: ADME, organism-based; details: in vivo
[16] = Inhibition of recombinant human CD73 expressed in Escherichia coli using AMP as substrate measured after 60 mins by malachite green method
[17] = Half life in male Sprague-Dawley rat at 1 mg/kg, iv; format: ADME, organism-based; details: in vivo
[18] = AUC (0 to t) in male Sprague-Dawley rat at 1 mg/kg, iv; format: ADME, organism-based; details: in vivo
E.G7-OVA [19] = experiment: In vivo antitumor immunity against mouse E.G7-OVA T cell lymphoma subcutaneously injected in syngeneic C57/BL6 mouse model assessed as tumor-infiltrating lymphocyte by measuring increase in CD8 positive/Treg ratio at 1 mg/kg, iv qd (tail vein) measured after 16 days by flow cytometry; format: functional, organism-based; details: time 16.0 day
E.G7-OVA [20] = experiment: In vivo antitumor activity against mouse E.G7-OVA T cell lymphoma subcutaneously injected in syngeneic C57/BL6 mouse model assessed as tumor growth inhibition in presence of KG035 at 50 mg/kg, ip measured after 14 days; format: functional; details: 336 h, time 14 day, read-out: TGI
E.G7-OVA [21] = experiment: as §1, with “cells in presence of doxorubicin” for “cells”; format: functional, organism-based; details: time 16.0 day
E.G7-OVA [22] = experiment: In vivo antitumor activity against mouse E.G7-OVA T cell lymphoma subcutaneously injected in syngeneic C57/BL6 mouse model assessed as tumor growth inhibition at 2.5 mg/kg, iv qw (tail vein) measured after 16 days; format: functional; details: 384 h, time 16 day, read-out: TGI
[23] = Half life in male Sprague-Dawley rat; format: ADME; details: in vivo

Structure (SMILES): O=C(O)C(Cc1ccccc1)(OCc1n[nH]c2cc(-n3nnc4c(F)cc(Br)cc43)ccc12)C(=O)O
- Cmax [1]: 124 ng/mL
- clearance [2]: 2.41 mL/min/kg
- Cmax [3]: 14500 ng/mL
- AUC(0-t) [4]: 144 ng·h/mL
- Activity (E.G7-OVA [5]): Active
- Tmax [6]: 0.5 h
- half-life [7]: 1.2 h
- inhibition in vivo at 1 mg/kg (E.G7-OVA [8]): 12.5%
- Activity (E.G7-OVA [9]): Active
- inhibition in vivo at 50 mg/kg (E.G7-OVA [10]): 41.1%
- Activity [11]: Non-Toxic
- CL/F [12]: 1210 mL/min/kg
- IC50 [13]: 40 nM
- inhibition in vivo at 1 mg/kg (E.G7-OVA [14]): 44.2%
- Tmax [15]: 4.8 min
- IC50 [16]: 60 nM
- half-life [17]: 1 h
- AUC(0-t) [18]: 7220 ng·h/mL
- Activity (E.G7-OVA [19]): Active
- inhibition in vivo at 50 mg/kg (E.G7-OVA [20]): 47.5%
- Activity (E.G7-OVA [21]): Active

Structure (SMILES): Nc1cc(F)c2nnn(-c3ccc4c(COC(Cc5ccccc5)(C(=O)O)C(=O)O)n[nH]c4c3)c2c1
- IC50 [13]: 280 nM
- IC50 [16]: 200 nM

Structure (SMILES): O=C(O)C(Cc1ccccc1)(OCc1n[nH]c2cc(-n3nnc4c(F)cc(NC5CCCC5)cc43)ccc12)C(=O)O
- IC50 [13]: 560 nM
- IC50 [16]: 490 nM

Structure (SMILES): O=C(O)C(Cc1ccccc1)(OCc1n[nH]c2cc(-n3nnc4c(F)cc(NCc5ccccc5C5CC5)cc43)ccc12)C(=O)O
- IC50 [13]: 620 nM
- IC50 [16]: 700 nM

Structure (SMILES): O=C(O)C(OCc1n[nH]c2cc(-n3nnc4c(F)cc(Br)cc43)ccc12)C(=O)O
- IC50 [13]: 3400 nM
- IC50 [16]: 8700 nM

Structure (SMILES): O=C(O)C(Cc1ccc(-c2ccccc2)cc1)(OCc1n[nH]c2cc(-n3nnc4c(F)cc(Br)cc43)ccc12)C(=O)O
- IC50 [13]: 1620 nM
- IC50 [16]: 780 nM

Structure (SMILES): O=C(O)C(Cc1cn[nH]c1)(OCc1n[nH]c2cc(-n3nnc4c(F)cc(Br)cc43)ccc12)C(=O)O
- IC50 [13]: 180 nM
- IC50 [16]: 190 nM

Structure (SMILES): COc1cccc2c1C(=O)c1c(O)c3c(c(O)c1C2=O)C[C@@](O)(C(=O)CO)C[C@@H]3O[C@H]1C[C@H](N)[C@H](O)[C@H](C)O1 [DOXORUBICIN]
- inhibition in vivo at 2.5 mg/kg (E.G7-OVA [22]): 34.7%

Structure (SMILES): CC(C)OCc1cc(F)c2nnn(-c3ccc4c(COC(Cc5ccccc5)(C(=O)O)C(=O)O)n[nH]c4c3)c2c1
- IC50 [13]: 1770 nM
- IC50 [16]: 1550 nM

Structure (SMILES): O=C(O)C(Cc1ccc(F)cc1)(OCc1n[nH]c2cc(-n3nnc4c(F)cc(Br)cc43)ccc12)C(=O)O
- IC50 [13]: 400 nM
- IC50 [16]: 540 nM

Structure (SMILES): O=C(O)C(Cc1ccccc1)(OCc1n[nH]c2cc(-n3nnc4c(F)cc(Cl)cc43)ccc12)C(=O)O
- half-life [23]: 2.1 h
- IC50 [13]: 90 nM
- IC50 [16]: 130 nM

Structure (SMILES): Cc1nnc(-c2c[nH]c(=O)[nH]c2=O)cc1[C@H]1C[C@@H]1C(C)C [LY-3475070]
- IC50 [13]: 40 nM
- IC50 [16]: 170 nM

Structure (SMILES): Cn1cc(CC(OCc2n[nH]c3cc(-n4nnc5c(F)cc(Br)cc54)ccc23)(C(=O)O)C(=O)O)c(C(F)(F)F)n1
- IC50 [13]: 610 nM
- IC50 [16]: 1030 nM

Structure (SMILES): Cc1noc(C)c1CC(OCc1n[nH]c2cc(-n3nnc4c(F)cc(Br)cc43)ccc12)(C(=O)O)C(=O)O
- IC50 [13]: 60 nM
- IC50 [16]: 370 nM

Structure (SMILES): O=C(O)C(Cc1ccccc1)(OCc1n[nH]c2cc(-n3nnc4c(F)cc([C@@H](O)CO)cc43)ccc12)C(=O)O
- IC50 [13]: 1100 nM
- IC50 [16]: 1310 nM

Structure (SMILES): O=C(O)C(Cc1ccc(C(F)(F)F)cc1)(OCc1n[nH]c2cc(-n3nnc4c(F)cc(Br)cc43)ccc12)C(=O)O
- IC50 [13]: 320 nM
- IC50 [16]: 2070 nM

Structure (SMILES): C=Cc1cc(F)c2nnn(-c3ccc4c(COC(Cc5ccccc5)(C(=O)O)C(=O)O)n[nH]c4c3)c2c1
- IC50 [13]: 950 nM
- IC50 [16]: 900 nM

Structure (SMILES): Cc1cc(F)c2nnn(-c3ccc4c(COC(Cc5ccccc5)(C(=O)O)C(=O)O)n[nH]c4c3)c2c1
- IC50 [13]: 1520 nM
- IC50 [16]: 1100 nM

Structure (SMILES): [2H]C([2H])(OC(Cc1ccccc1)(C(=O)O)C(=O)O)c1n[nH]c2cc(-n3nnc4c(F)cc(Cl)cc43)ccc12
- Cmax [1]: 68.6 ng/mL
- clearance [2]: 1.93 mL/min/kg
- Cmax [3]: 19100 ng/mL
- AUC(0-t) [4]: 99.5 ng·h/mL
- Tmax [6]: 0.3 h
- half-life [7]: 2.1 h
- CL/F [12]: 1820 mL/min/kg
- IC50 [13]: 100 nM
- Tmax [15]: 4.8 min
- half-life [17]: 2.5 h
- AUC(0-t) [18]: 8740 ng·h/mL

Structure (SMILES): CC(C)(C#N)c1ccc(CC(OCc2n[nH]c3cc(-n4nnc5c(F)cc(Br)cc54)ccc23)(C(=O)O)C(=O)O)cc1
- IC50 [13]: 380 nM
- IC50 [16]: 690 nM

Structure (SMILES): C[C@H](Nc1cc(Cl)nc2c1cnn2[C@@H]1O[C@H](COP(=O)(O)CP(=O)(O)O)[C@@H](O)[C@H]1O)c1ccccc1F [QUEMLICLUSTAT]
- IC50 [13]: 1 nM
- IC50 [16]: 1 nM

Structure (SMILES): Cc1cccc(C)c1CC(OCc1n[nH]c2cc(-n3nnc4c(F)cc(Br)cc43)ccc12)(C(=O)O)C(=O)O
- IC50 [13]: 1030 nM
- IC50 [16]: 590 nM

Structure (SMILES): Cc1ccccc1CC(OCc1n[nH]c2cc(-n3nnc4c(F)cc(Br)cc43)ccc12)(C(=O)O)C(=O)O
- IC50 [13]: 340 nM
- IC50 [16]: 35000 nM

Structure (SMILES): CC(=O)Nc1nc(CC(OCc2n[nH]c3cc(-n4nnc5c(F)cc(Br)cc54)ccc23)(C(=O)O)C(=O)O)cs1
- IC50 [13]: 630 nM
- IC50 [16]: 530 nM

Structure (SMILES): O=C(O)C(Cc1ccccc1)(OCc1n[nH]c2cc(-n3nnc4c(F)cc(C5CCC5)cc43)ccc12)C(=O)O
- IC50 [13]: 620 nM
- IC50 [16]: 1420 nM

Structure (SMILES): Fc1cc(Br)cc2c1nnn2-c1ccc2cn[nH]c2c1
- IC50 [13]: > 20000 nM
- IC50 [16]: > 20000 nM

Structure (SMILES): O=C(O)C(Cc1ccccc1)(OCc1n[nH]c2cc(-n3nnc4c(F)cc(NCc5ccccc5)cc43)ccc12)C(=O)O
- IC50 [13]: 550 nM
- IC50 [16]: 330 nM

Structure (SMILES): CCOC(=O)C(Cc1ccccc1)(OCc1n[nH]c2cc(-n3nnc4c(F)cc(Br)cc43)ccc12)C(=O)O (stereo not given)
- IC50 [13]: 7100 nM
- IC50 [16]: > 20000 nM

Structure (SMILES): O=C(O)C(Cc1ccc(C(F)(F)F)o1)(OCc1n[nH]c2cc(-n3nnc4c(F)cc(Br)cc43)ccc12)C(=O)O
- IC50 [13]: 230 nM
- IC50 [16]: 890 nM

Structure (SMILES): O=C(O)C(Cc1ccccc1)(OCc1n[nH]c2cc(-n3nnc4c(F)cc(C5CC5)cc43)ccc12)C(=O)O
- IC50 [13]: 1000 nM
- IC50 [16]: 1430 nM

Structure (SMILES): O=C(O)C(Cc1ccccc1F)(OCc1n[nH]c2cc(-n3nnc4c(F)cc(Br)cc43)ccc12)C(=O)O
- IC50 [13]: 130 nM
- IC50 [16]: 200 nM
